Assay results reported in patent US10758560B2, “Methods for treating sarcopenia and frailty” (NESTEC S.A., priority 2015, dated 2020).

How the values were obtained:
[1] = test system: neuromuscular junctions (nerve and muscle co-cultures); experiment: Nerve and muscle co-cultures, stronger beta-amyloid (10 μM) induced damage of neuromuscular junctions; type: cell-based; conditions: longer incubation, NRG1 30 nM and/or AdoCbl 1 nM, FIG. 5
Protocol: Nerve and muscle co-cultures were grown in vitro until neuromuscular junctions were mature. Damage was induced using beta-amyloid (Ab) incubation (10 μM) and riluzole (5 μM) was used as a positive control for preserving neuromuscular junctions from Ab-induced damage. The effect of neuregulin-1 (NRG1; 30 nM) and/or adenosylcobalamin (AdoCbl; 1 nM) on Ab-induced damage was evaluated by measuring the neuromuscular junction (NMJ) size or number. 6 wells per group were analysed and compared to a control condition (CTL) without Ab-induced damage.

[2] = test system: neuromuscular junctions (nerve and muscle co-cultures); experiment: Nerve and muscle co-cultures, beta-amyloid (2.5 μM) induced damage of neuromuscular junctions; type: cell-based; conditions: for protection from Ab-induced damage (neuromuscular junction size, number and neurite network): 1 or 100 nM, FIG. 4
Protocol: Nerve and muscle co-cultures were grown in vitro until neuromuscular junctions were mature. Damage was induced using beta-amyloid (Ab) incubation (2.5 μM) and riluzole (5 μM) was used as a positive control for preserving neuromuscular junctions from Ab-induced damage.
The effect of neuregulin-1 (NRG1; various concentrations, as specified in FIG. 2) on Ab-induced damage was evaluated by measuring the neuromuscular junction (NMJ) size. 6 wells per group were analysed and compared to a control condition. The uninjured control condition is the neuromuscular junction size without Ab treatment. All other conditions are to be compared to the Ab treatment alone which represents the reference value for damaged neuromuscular junction size.
Nerve and muscle co-cultures were grown in vitro until neuromuscular junctions were mature. Damage was induced using beta-amyloid (Ab) incubation (2.5 μM) and riluzole (5 μM) was used as a positive control for preserving neuromuscular junctions from Ab-induced damage. The effect of methylcobalamin (MeCbl; 1 or 100 nM) and adenosylcobalamin (AdenoCbl; 1 or 100 nM) on Ab-induced damage was evaluated by measuring the neuromuscular junction (NMJ) number and size, and the neurite network. 6 wells per group were analysed and compared to a control condition (CTL). The uninjured control condition is the neuromuscular junction size without Ab treatment. All other conditions are to be compared to the Ab treatment alone which represents the reference value for damaged neuromuscular junction size.

[3] = test system: Tibialis anterior muscle fibers; experiment: Effect of vitamin B12 on skeletal muscle in vivo: tibialis anterior fiber size in aged rats; design: species or system rat; conditions: 1 mg/kg s.c. 3 times per week for 5 months, type 2A fibers, FIG. 6
Protocol: Pre-sarcopenic rats aged 16 months were treated for 5 months with either adenosylcobalamin (AdoCbl, C0884, Sigma aldrich), methylcobalamin (MeCbl, M9756, Sigma aldrich) or saline. AdoCbl and MeCbl were injected sub-cutaneously at 1 mg/kg body weight 3 time per week. Tibialis Anterior (TA) was then dissected out and frozen for further analyses. For histology, TA was cryo-sectioned at 10 μm and stained with laminin (L9393, Sigma aldrich) to delineate fibers. Specific fiber types 1, 2A and 2B were immunolabeled subsequently with appropriate antibodies (clones BADS, BFF3, and SC71 respectively, DSHB). Images were acquired using a slide scanner (VS-120, Olympus) and analyzed using an in-house MetaXpress journal (Molecular Devices, Sunnyvale, USA). Images from old animals were compared to a group of adult healthy rats (8 months at start of experiment) injected with saline control. For gene expression analysis, total RNA was extracted using the miRNeasy Mini Kit (Qiagen) according to the manufacturer's instruction and RNA quality was checked using the Standard Sensitivity RNA Analysis Kit on a Fragment Analyzer (Advanced Analytical Technologies). Samples were then hybridized on Affymetrix Rat 230 PM 96-Array following standard Affymetrix protocol, based on the Eberwine T7 procedure. […]

HSMM human myoblasts = experiment: TNFa-induced myotube atrophy in HSMM human myoblasts (fusion index); type: cell-based; conditions: TNFa 40 ng/ml for 4 days; 1 nM; FIG. 7
Protocol: HSMM human myoblasts were grown in vitro and induced to differentiate into mature myotubes. Myotube atrophy was induced by incubation with TNFa at 40 ng/ml for 4 days. MeCbl (1 nM) and AdoCbl (1 nM) were incubated together with TNFa to test their effect on induced atrophy. IGF1 is used as a positive control at 15 nM to prevent muscle atrophy. After 4 days of treatment, cells were stained for nuclei and myosin heavy chain to quantify the proportion of nuclei inside myotubes (i.e fusion index).

[4] = test system: hind-limb skeletal muscle; experiment: Age-induced atrophy of skeletal muscle in pre-sarcopenic rats (hind-limb skeletal muscle mass); type: in vivo, rat; conditions: pre-sarcopenic rats aged 16 months, 1 μg/kg s.c. 3 times per week for 5 months, versus saline controls; FIG. 3
Protocol: Pre-sarcopenic rats aged 16 months were treated for 5 months with either neuregulin-1 (NRG1; NRG1 beta EGF domain from Reprokine (catalog number RKQ02297)) or saline. NRG1 was injected sub-cutaneously at 1 μg/kg body weight 3 time per week. Hind-limb skeletal muscle mass was then evaluated and compared to a group of adult healthy rats (8 months at start of experiment) injected with saline control. […]

Molecule | rescue of neuromuscular junctions (number and size) from stronger Ab-induced damage [1] | protection from Ab-induced damage (neuromuscular junction size, number and neurite network) [2] | increase in muscle fiber size [3] | protection from muscle atrophy (fusion index) (HSMM human myoblasts) | protection of the neuromuscular system from Ab-induced damage (neuromuscular junction size) ([2]; NRG1 at a dose of 30 nM, FIG. 2) | hind-limb skeletal muscle mass [4]
C/C1=C2/[N-][C@H]([C@H](CC(N)=O)[C@@]2(C)CCC(=O)NC[C@@H](C)OP(=O)([O-])O[C@H]2[C@@H](O)[C@@H](n3cnc4cc(C)c(C)cc43)O[C@@H]2CO)[C@]2(C)N=C(/C(C)=C3N=C(/C=C4N=C1[C@@H](CCC(N)=O)C\4(C)C)[C@@H](CCC(N)=O)[C@]\3(C)CC(N)=O)[C@@H](CCC(N)=O)[C@]2(C)CC(N)=O.[CH2-][C@H]1O[C@@H](n2cnc3c(N)ncnc32)[C@H](O)[C@@H]1O.[Co] [adenosylcobalamin, Adenosylcobalamin] | neither neuregulin-1 nor adenosylcobalamin alone could rescue the system | able to protect the system at both doses tested | able to induce an increase in muscle fiber size | – | – | –
C/C1=C2/[N-][C@H]([C@H](CC(N)=O)[C@@]2(C)CCC(=O)NC[C@H](C)OP(=O)([O-])O[C@H]2[C@@H](O)[C@@H](n3cnc4cc(C)c(C)cc43)O[C@@H]2CO)[C@]2(C)N=C(/C(C)=C3N=C(/C=C4N=C1[C@@H](CCC(N)=O)C\4(C)C)[C@@H](CCC(N)=O)[C@]\3(C)CC(N)=O)[C@@H](CCC(N)=O)[C@]2(C)CC(N)=O.[CH3-].[Co+3] [methylcobalamin, Methylcobalamin] | – | not methylcobalamin, was also able to protect the system | not methylcobalamin, was also able to induce an increase in muscle fiber size | able to protect from muscle atrophy | – | –
neuregulin-1: NRG1 beta EGF domain from Reprokine (catalog number RKQ02297); SEQ ID NO: 7 (protein, listed as Homo sapiens) SHLVKCAEKEKTFCVNGGECFMVKDLSNPSRYLCKCPNEFTGDRCQNYVMASFYKHLGIEF | neither neuregulin-1 nor adenosylcobalamin alone could rescue the system | – | – | – | able to protect the neuromuscular system from damage | significantly higher mass compared to controls
